Where two headings read alike, the source gives them in different places.
What was measured:
5HT2A receptor [1] = target: T1, 5HT2A receptor (Homo sapiens, UniProt P28223); test: cell-based; design: expressed in transfected cells; host or cells: HEK293T cells, transient co-transfection; details: for Emax: HEK-293T
5HT2A receptor [2] = target: T1, 5HT2A receptor; test: biochemical; type: binding; design: expressed in transfected cells; crude membranes
5HT2A receptor [3] = target: T1, 5HT2A receptor; test: cell-based; design: expressed in transfected cells; host or cells: HEK293T cells, transient co-transfection; details: for Emax: HEK-293T; remark: listed apart in the source
[4] = BRET1 beta-arrestin2 recruitment, HEK293T cells, read-out: 5HT2A β-Arr EC50
[5] = BRET1 beta-arrestin2 recruitment, HEK293T cells, normalized to 5-HT, read-out: 5HT2A β-Arr Emax (%)
[6] = secondary radioligand binding, Ki from IC50 by Cheng-Prusoff, read-out: 5HT2A Ki
[7] = BRET2 Gαq dissociation, HEK293T cells, read-out: 5HT2A Gq EC50
[8] = BRET2 Gαq dissociation, HEK293T cells, normalized to 5-HT, read-out: 5HT2A Gq Emax (%)
[9] = 5HT2A β-Arr EC50 (nM), BRET1 beta-arrestin2 recruitment, HEK293T cells
[10] = 5HT2A Ki (nM), secondary radioligand binding, Ki from IC50 by Cheng-Prusoff
[11] = 5HT2A Gq EC50 (nM), BRET2 Gαq dissociation, HEK293T cells
[12] = 5HT2A β-Arr EC50 (nM), BRET1 beta-arrestin2 recruitment, HEK293T
[13] = BRET1 beta-arrestin2 recruitment, HEK293T, normalized to 5-HT, read-out: 5HT2A β-Arr Emax (%)
[14] = 5HT2A Ki (nM), secondary binding assay, Cheng-Prusoff
[15] = BRET2 Gαq dissociation, HEK293T, read-out: 5HTA Gq EC50
[16] = BRET2 Gαq dissociation, HEK293T, normalized to 5-HT, read-out: 5HTA Gq Emax (%)
[17] = 5HTA Gq EC50 (nM), BRET2 Gαq dissociation, HEK293T
[18] = BRET1 beta-arrestin2 recruitment, HEK293T, read-out: 5HT2A β-Arr EC50

T1 sequence (P28223 whole entry): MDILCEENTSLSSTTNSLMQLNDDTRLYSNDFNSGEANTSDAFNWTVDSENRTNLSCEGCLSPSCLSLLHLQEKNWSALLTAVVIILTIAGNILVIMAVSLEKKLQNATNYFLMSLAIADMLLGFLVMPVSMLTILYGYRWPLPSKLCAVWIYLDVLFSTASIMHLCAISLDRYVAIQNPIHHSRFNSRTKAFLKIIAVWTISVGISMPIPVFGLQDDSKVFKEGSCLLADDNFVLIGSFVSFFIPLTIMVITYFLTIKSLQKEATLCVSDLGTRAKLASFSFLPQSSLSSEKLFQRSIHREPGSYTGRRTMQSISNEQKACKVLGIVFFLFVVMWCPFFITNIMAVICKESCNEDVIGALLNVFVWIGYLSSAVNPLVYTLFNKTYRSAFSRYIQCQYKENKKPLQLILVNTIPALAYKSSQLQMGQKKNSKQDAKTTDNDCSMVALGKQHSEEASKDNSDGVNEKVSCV

Row | SMILES | Emax (5HT2A receptor [1]; [5]) [%] | Emax (5HT2A receptor [3]; [8]) [%] | EC50 (5HT2A receptor [1]; [9]) [nM] | Ki (5HT2A receptor [2]; [10]) [nM] | EC50 (5HT2A receptor [1]; [12]) [nM] | Emax (5HT2A receptor [1]; [13]) [%] | Ki (5HT2A receptor [2]; [14]) [nM] | Emax (5HT2A receptor [3]; [16]) [%] | further results
1 | CN1CCC=C(c2c[nH]c3c(F)cccc23)C1 [Example 56, 7-fluoro-3-(1-methyl-1,2,5,6-tetrahydropyridin-3-yl)-1H-indole] | 49.5 | 96.9 |  |  |  |  |  |  | EC50 (5HT2A receptor [1]; [4]): 57.7 nM; Ki (5HT2A receptor [2]; [6]): 59.8 nM; EC50 (5HT2A receptor [3]; [7]): 16.8 nM
2 | CN1CCC=C(c2c[nH]c3ncc(F)cc23)C1 [Example 118, 5-fluoro-3-(1-methyl-1,2,5,6-tetrahydropyridin-3-yl)-1H-pyrrolo[2,3-b]pyridine] | 56.7 | 109 | 49.4 | 80.3 |  |  |  |  | EC50 (5HT2A receptor [3]; [11]): 31.6 nM
3 | CCCN1CC=C(c2n[nH]c3c(Cl)cccc23)C1 [Example 213, 7-chloro-3-(1-propyl-2,5-dihydro-1H-pyrrol-3-yl)-1H-indazole] |  |  |  |  | 211 | 31.5 | 1770 | 61.3 | EC50 (5HT2A receptor [3]; [15]): 72.7 nM
4 | CCCN1CCC=C(c2c[nH]c3c(Cl)cc(F)cc23)C1 [Example 159] |  |  |  |  | 66.9 |  | 126 |  | Emax (5HT2A receptor [1]; read-out: 5HT2A β-Arr Emax (%), BRET1 beta-arrestin2 recruitment, HEK293T, normalized to 5-HT): 39.7%; EC50 (5HT2A receptor [3]; [17]): 17.5 nM; Emax (5HT2A receptor [3]; read-out: 5HTA Gq Emax (%), BRET2 Gαq dissociation, HEK293T, normalized to 5-HT): 90.3%
5 | Clc1cccc2c(C3=CCNC3)c[nH]c12 [Example 209, 7-chloro-3-(2,5-dihydro-1H-pyrrol-3-yl)-1H-indole] |  |  |  |  |  | 88.1 | 160 | 100 | EC50 (5HT2A receptor [1]; [18]): 60.7 nM; EC50 (5HT2A receptor [3]; [15]): 8.1 nM
6 | C1=C(c2n[nH]c3ccccc23)CNCC1 [Example 45, 3-(1,2,5,6-tetrahydropyridin-3-yl)-1H-indazole] | 68.1 | 98.3 | 138 | 113 |  |  |  |  | 
7 | CCc1cccc2c(C3=CCCN(Cc4ccccc4)C3)c[nH]c12 [Example 69, 3-(1-benzyl-1,2,5,6-tetrahydropyridin-3-yl)-7-ethyl-1H-indole] | 63.5 | 49.7 | 1740 | 199 |  |  |  |  | EC50 (5HT2A receptor [3]; [11]): 98.2 nM
8 | N#Cc1cccc2c(C34CNCC3C4)n[nH]c12 (stereo not drawn) [Example 184, 3-(3-azabicyclo[3.1.0]hexan-1-yl)-1H-indazole-7-carbonitrile] |  |  |  |  | 1970 | 68.2 | 5680 | 103 | EC50 (5HT2A receptor [3]; [17]): 423 nM
9 | Clc1ccc2c(C3=CCCNC3)c[nH]c2c1 [Example 31, 6-chloro-3-(1,2,5,6-tetrahydropyridin-3-yl)-1H-indole] | 112 | 93 | 1500 | 160 |  |  |  |  | EC50 (5HT2A receptor [3]; [11]): 106 nM
10 | CCN1CCC=C(c2nn(CC)c3c(Cl)cccc23)C1 [Example 146, 7-chloro-1-ethyl-3-(1-ethyl-1,2,5,6-tetrahydropyridin-3-yl)-1H-indazole] |  |  |  |  | 1530 | 56.7 | 171 | 54.5 | EC50 (5HT2A receptor [3]; [17]): 51.7 nM
11 | CN1CC(c2c[nH]c3c(Cl)cccc23)C1 [Example 256, 7-chloro-3-(1-methylazetidin-3-yl)-1H-indole] |  |  |  |  | 1000 | 31.7 | 2010 | 97.5 | EC50 (5HT2A receptor [3]; [17]): 367 nM
12 | CN1CCC=C(c2n[nH]c3ccccc23)C1 [Example 46, 3-(1-methyl-1,2,5,6-tetrahydropyridin-3-yl)-1H-indazole] | 21.9 | 62.6 | 115 |  |  |  |  |  | Ki (5HT2A receptor [2]; [6]): 87.3 nM; EC50 (5HT2A receptor [3]; [7]): 3.3 nM
13 | N#Cc1cccc2c(C3=CCCNC3)n[nH]c12 [Example 91, 3-(1,2,5,6-tetrahydropyridin-3-yl)-1H-indazole-7-carbonitrile] | 86 | 126 | 105 | 237 |  |  |  |  | EC50 (5HT2A receptor [3]; [7]): 17.2 nM
14 | CN1CCC=C(c2n[nH]c3cccc(F)c23)C1 [Example 98, 4-fluoro-3-(1-methyl-1,2,5,6-tetrahydropyridin-3-yl)-1H-indazole] | 54 | 58.5 | 483 | 835 |  |  |  |  | EC50 (5HT2A receptor [3]; [11]): 105 nM
15 | CCc1cccc2c(C3=CCCNC3)c[nH]c12 [Example 50, 7-ethyl-3-(1,2,5,6-tetrahydropyridin-3-yl)-1H-indole] | 79.1 | 92.6 |  | 244 |  |  |  |  | EC50 (5HT2A receptor [1]; [4]): 67 nM; EC50 (5HT2A receptor [3]; [7]): 4.7 nM
16 | CN1CCC=C(c2n[nH]c3c(Cl)ccc(F)c23)C1 [Example 132, 7-chloro-4-fluoro-3-(1-methyl-1,2,5,6-tetrahydropyridin-3-yl)-1H-indazole] |  |  |  |  |  | 50.9 |  | 95.4 | EC50 (5HT2A receptor [1]; [18]): 93 nM; Ki (5HT2A receptor [2]; secondary binding assay, Cheng-Prusoff, read-out: 5HT2A Ki): 84.6 nM; EC50 (5HT2A receptor [3]; [15]): 24 nM
17 | CN1CCCC(c2c[nH]c3c(Cl)cccc23)C1 (single isomer, unassigned) [Example 113, 7-chloro-3-(1-methylpiperidin-3-yl)-1H-indole] |  |  | 1520 | 1430 |  |  |  |  | Emax (5HT2A receptor [1]; read-out: 5HT2A β-Arr Emax (%), BRET1 beta-arrestin2 recruitment, HEK293T cells, normalized to 5-HT): 62.6%; EC50 (5HT2A receptor [3]; [11]): 279 nM; Emax (5HT2A receptor [3]; read-out: 5HT2A Gq Emax (%), BRET2 Gαq dissociation, HEK293T cells, normalized to 5-HT): 84.9%
18 | CCc1cccc2c(C3=CCCN(C)C3)n[nH]c12 [Example 122, 7-ethyl-3-(1-methyl-1,2,5,6-tetrahydropyridin-3-yl)-1H-indazole] | 42.9 | 102 | 247 | 816 |  |  |  |  | EC50 (5HT2A receptor [3]; [11]): 151 nM
19 | Clc1ccc2[nH]cc(C3=CCCNC3)c2c1 [Example 22, 5-chloro-3-(1,2,5,6-tetrahydropyridin-3-yl)-1H-indole] | 77.3 | 102 |  |  |  |  |  |  | EC50 (5HT2A receptor [1]; [4]): 78.4 nM; Ki (5HT2A receptor [2]; [6]): 44.3 nM; EC50 (5HT2A receptor [3]; [7]): 7.2 nM
20 | Fc1ccnc2[nH]cc(C3=CCCNC3)c12 [Example 119, 4-fluoro-3-(1,2,5,6-tetrahydropyridin-3-yl)-1H-pyrrolo[2,3-b]pyridine] | 53.8 | 88.2 | 1520 | 844 |  |  |  |  | EC50 (5HT2A receptor [3]; [11]): 193 nM
21 | COc1cnc2[nH]cc(C3=CCCNC3)c2c1 [Example 2, 5-methoxy-3-(1,2,5,6-tetrahydropyridin-3-yl)-1H-pyrrolo[2,3-b]pyridine] | 61.6 | 73.7 | 1040 | 294 |  |  |  |  | EC50 (5HT2A receptor [3]; [11]): 135 nM
22 | Fc1cc(Cl)c2[nH]nc(N3CCNCC3)c2c1 [Example 232, 7-chloro-5-fluoro-3-(piperazin-1-yl)-1H-indazole] |  |  |  |  | 1970 | 29 | 1540 | 48.4 | EC50 (5HT2A receptor [3]; [17]): 170 nM
23 | CN1CCC=C(c2c[nH]c3nc(F)ccc23)C1 [Example 134, 6-fluoro-3-(1-methyl-1,2,5,6-tetrahydropyridin-3-yl)-1H-pyrrolo[2,3-b]pyridine] |  |  |  |  | 1050 | 51.1 | 284 | 87.4 | EC50 (5HT2A receptor [3]; [17]): 140 nM
24 | FCCCN1CCC=C(c2n[nH]c3c(Cl)cccc23)C1 [Example 165, 7-chloro-3-(1-(3-fluoropropyl)-1,2,5,6-tetrahydropyridin-3-yl)-1H-indazole] |  |  |  |  | 157 | 28.7 | 342 | 65 | EC50 (5HT2A receptor [3]; [15]): 85.8 nM
25 | Cc1cccc2c(C3=CCCNC3)n[nH]c12 [Example 88, 7-methyl-3-(1,2,5,6-tetrahydropyridin-3-yl)-1H-indazole] | 64.8 | 72.6 | 227 | 211 |  |  |  |  | EC50 (5HT2A receptor [3]; [7]): 52.8 nM
26 | CN1CCC=C(c2n[nH]c3ccc(Cl)cc23)C1 [Example 101, 5-chloro-3-(1-methyl-1,2,5,6-tetrahydropyridin-3-yl)-1H-indazole] | 80.7 | 74.2 | 292 | 141 |  |  |  |  | EC50 (5HT2A receptor [3]; [7]): 16.2 nM
27 | Cc1c(F)ccc2c(C3=CCCN(C)C3)c[nH]c12 [Example 127, 6-fluoro-7-methyl-3-(1-methyl-1,2,5,6-tetrahydropyridin-3-yl)-1H-indole] |  |  |  |  |  | 48.9 | 121 | 90.2 | EC50 (5HT2A receptor [1]; [18]): 62.9 nM; EC50 (5HT2A receptor [3]; [15]): 26.6 nM
28 | COc1cccc2[nH]nc(C3=CCCNC3)c12 [Example 83, 4-methoxy-3-(1,2,5,6-tetrahydropyridin-3-yl)-1H-indazole] | 75.9 | 81.7 |  |  |  |  |  |  | EC50 (5HT2A receptor [1]; [4]): 109 nM; Ki (5HT2A receptor [2]; [6]): 78.8 nM; EC50 (5HT2A receptor [3]; [7]): 12.5 nM
29 | Cc1cccc2c(C3CN(C)C3)c[nH]c12 [Example 261, 7-methyl-3-(1-methylazetidin-3-yl)-1H-indole] |  |  |  |  | 1650 | 26.1 | 1680 | 69.3 | EC50 (5HT2A receptor [3]; [17]): 196 nM
